The test system of one data set is Escherichia coli. Put plainly: Antimicrobial activity against Escherichia coli ATCC 25922 assessed as inhibition of bacterial growth incubated for 48 hrs by CLSI based broth microdilution method. The data set is classed as functional. (In general: In broth dilution the organism is exposed to a series of concentrations in liquid medium.)
A further data set relates to Staphylococcus aureus. Put plainly: Antimicrobial activity against Staphylococcus aureus ATCC 9144 assessed as inhibition of bacterial growth incubated for 48 hrs by CLSI based broth microdilution method. The format is functional.
In the next data set the test system is Bacillus subtilis. Put plainly: Antimicrobial activity against Bacillus subtilis 168 assessed as inhibition of bacterial growth incubated for 48 hrs by CLSI based broth microdilution method. The format is functional.
Another data set concerns Pseudomonas aeruginosa. Put plainly: Antimicrobial activity against Pseudomonas aeruginosa ATCC 27853 assessed as inhibition of bacterial growth incubated for 48 hrs by CLSI based broth microdilution method. The format is functional.
Data set [1] can be described thus: Hemolytic activity in human RBC assessed as hemolysis incubated for 1 hr by absorbance based microplate reader analysis. The data set is classed as toxicity, cell-based, Erythrocyte. Conditions: human red blood cells (erythrocytes).
A short description of data set [2]: Selectivity index, ratio of EC50 for hemolytic activity in human RBC assessed as hemolysis to MIC for antimicrobial activity against Bacillus subtilis 168 assessed as inhibition of bacterial growth. The data set is classed as toxicity. Conditions: human red blood cells (erythrocytes), read-out: Selectivity Index.
A short description of data set [3]: Selectivity index, ratio of EC50 for hemolytic activity in human RBC assessed as hemolysis to MIC for antimicrobial activity against Staphylococcus aureus ATCC 9144 assessed as inhibition of bacterial growth. The format is toxicity. The following applies: human red blood cells (erythrocytes), read-out: Selectivity Index.
A short description of data set [4]: Selectivity index, ratio of EC50 for hemolytic activity in human RBC assessed as hemolysis to MIC for antimicrobial activity against Escherichia coli ATCC 25922 assessed as inhibition of bacterial growth. The data set is classed as toxicity. The following applies: human red blood cells (erythrocytes), read-out: Selectivity Index.

Converted amounts (≈) assume the structure as drawn.

Broadly, the MIC is the smallest concentration in the dilution series that meets the test's criterion for growth inhibition. By EC50 is commonly meant the concentration giving half of the maximal effect. As for `NCCCCN1C(=O)N(CCCCN)C(Cc2cc(Br)cc(Br)c2)(Cc2cc(Br)cc(Br)c2)C1=O.O=C(O)C(F)(F)F.O=C(O)C(F)(F)F`, the minimal inhibitory concentration (MIC) in the data set on Escherichia coli turned out to be 32 µg/mL; with Staphylococcus aureus, 8 µg/mL; in the data set with Bacillus subtilis it was 2 µg/mL; in the data set on Pseudomonas aeruginosa, 32 µg/mL. The EC50 at 1 h in data set [1] amounted to 364 µg/mL.

Turning to `N=C(N)NCCCN1C(=O)N(CCCNC(=N)N)C(Cc2ccc(Br)c(Cl)c2)(Cc2ccc(Br)c(Cl)c2)C1=O`, the minimum inhibitory concentration (MIC) in the data set with Escherichia coli turned out to be 32 µg/mL (≈ 45.4 µM); in the data set on Staphylococcus aureus, 2 µg/mL (≈ 2.84 µM); in the data set on Bacillus subtilis, 2 µg/mL (≈ 2.84 µM); with Pseudomonas aeruginosa, 64 µg/mL (≈ 90.7 µM). The selectivity ratio in data set [2] and in data set [3] was greater than 234 each time. Besides, the EC50 at 1 h in data set [1] is greater than 467 µg/mL.

Take `NCCCN1C(=O)N(CCCN)C(=O)C(Cc2cc(Br)cc(Br)c2)(Cc2cc(Br)cc(Br)c2)C1=O.O=C(O)C(F)(F)F.O=C(O)C(F)(F)F`: the MIC in the data set with Escherichia coli amounted to 8 µg/mL; with Staphylococcus aureus it was 4 µg/mL; in the data set on Bacillus subtilis, 4 µg/mL; in the data set on Pseudomonas aeruginosa, 8 µg/mL.

For `N=C(N)NCCCN1C(=O)N(CCCNC(=N)N)C(Cc2ccc(C(F)(F)F)cc2)(Cc2ccc(C(F)(F)F)cc2)C1=O.O=C(O)C(F)(F)F.O=C(O)C(F)(F)F`, the MIC is 128 µg/mL with Escherichia coli, 16 µg/mL with Staphylococcus aureus, 8 µg/mL in the data set with Bacillus subtilis and greater than 256 µg/mL in the data set with Pseudomonas aeruginosa. The EC50 at 1 h in data set [1] is greater than 421 µg/mL.

Regarding `NCCCN1C(=O)N(CCCN)C(Cc2ccc(Br)c(Cl)c2)(Cc2ccc(Br)c(Cl)c2)C1=O.O=C(O)C(F)(F)F.O=C(O)C(F)(F)F`, the minimal inhibitory concentration (MIC) in the data set with Escherichia coli came out at 32 µg/mL; with Staphylococcus aureus it was 8 µg/mL; with Bacillus subtilis, 4 µg/mL; in the data set with Pseudomonas aeruginosa, 32 µg/mL. Moreover, the EC50 at 1 h in data set [1] stood at 368 µg/mL.

As for `NCCCN1C(=O)N(CCCN)C(Cc2ccc(Br)c3ccccc23)(Cc2ccc(Br)c3ccccc23)C1=O.O=C(O)C(F)(F)F.O=C(O)C(F)(F)F`, the minimal inhibitory concentration (MIC) in the data set on Escherichia coli turned out to be 8 µg/mL; with Staphylococcus aureus it was 4 µg/mL; with Bacillus subtilis it was 4 µg/mL; with Pseudomonas aeruginosa it was 8 µg/mL. Further, the concentration giving a half-maximal response (EC50) at 1 h in data set [1] was determined as 69 µg/mL.

On to `N=C(N)NCCCCN1C(=O)N(CCCCNC(=N)N)C(Cc2cc(C(F)(F)F)cc(C(F)(F)F)c2)(Cc2cc(C(F)(F)F)cc(C(F)(F)F)c2)C1=O.O=C(O)C(F)(F)F.O=C(O)C(F)(F)F`, for which the MIC in the data set on Escherichia coli stood at 8 µg/mL; in the data set on Staphylococcus aureus, 2 µg/mL; in the data set on Bacillus subtilis, 2 µg/mL; in the data set on Pseudomonas aeruginosa it was 32 µg/mL. Further, the figures for the selectivity ratio in data set [2], in data set [4] and in data set [3] were 192, 48 and 192, respectively. In data set [1], the EC50 at 1 h was found to be 384 µg/mL.

For `NCCCOc1nc(Cc2cc(Br)cc(Br)c2)c(Cc2cc(Br)cc(Br)c2)n1CCCN.O=C(O)C(F)(F)F.O=C(O)C(F)(F)F`, the MIC in the data set on Escherichia coli is 4 µg/mL; in the data set with Staphylococcus aureus, 2 µg/mL; in the data set on Bacillus subtilis, 2 µg/mL; in the data set with Pseudomonas aeruginosa, 4 µg/mL. Moreover, the EC50 at 1 h in data set [1] stood at 44 µg/mL.

As to `NCCCn1c(Cc2cc(Br)cc(Br)c2)c(Cc2cc(Br)cc(Br)c2)n(CCCN)c1=O.O=C(O)C(F)(F)F.O=C(O)C(F)(F)F`, the MIC worked out at 4 µg/mL in the data set with Escherichia coli, 2 µg/mL with Staphylococcus aureus, 1 µg/mL in the data set with Bacillus subtilis and 8 µg/mL with Pseudomonas aeruginosa. The EC50 at 1 h in data set [1] was found to be 52 µg/mL.

Regarding `N=C(N)NCCCN1C(=O)N(CCCNC(=N)N)C(Cc2ccc(Br)c3ccccc23)(Cc2ccc(Br)c3ccccc23)C1=O.O=C(O)C(F)(F)F.O=C(O)C(F)(F)F`, the MIC in the data set with Escherichia coli worked out at 8 µg/mL; in the data set with Staphylococcus aureus, 2 µg/mL; with Bacillus subtilis, 2 µg/mL; in the data set on Pseudomonas aeruginosa, 32 µg/mL. In addition, the figures for the selectivity ratio in data set [2], in data set [4] and in data set [3] were 103, 26 and 103, respectively. Also, the EC50 at 1 h in data set [1] was determined as 206 µg/mL.

Regarding `NCCCN1C(=S)N(CCCN)C(Cc2cc(Br)cc(Br)c2)(Cc2cc(Br)cc(Br)c2)C1=S.O=C(O)C(F)(F)F.O=C(O)C(F)(F)F`, the MIC came out at 16 µg/mL with Escherichia coli, 8 µg/mL in the data set with Staphylococcus aureus, 8 µg/mL in the data set on Bacillus subtilis and 32 µg/mL in the data set on Pseudomonas aeruginosa. In data set [1], the EC50 at 1 h came to 385 µg/mL.

`NCCCCN1C(=O)N(CCCCN)C(Cc2ccc(Br)c(Cl)c2)(Cc2ccc(Br)c(Cl)c2)C1=O.O=C(O)C(F)(F)F.O=C(O)C(F)(F)F`: the MIC in the data set on Escherichia coli is 64 µg/mL; in the data set on Staphylococcus aureus it was 8 µg/mL; in the data set on Bacillus subtilis it was 4 µg/mL; with Pseudomonas aeruginosa it was 64 µg/mL. The selectivity ratio in data set [2] is greater than 110; in data set [3], greater than 55. Besides, the EC50 at 1 h in data set [1] was greater than 439 µg/mL.

Regarding `NCCCN1C(=O)N(CCCN)C(Cc2ccccc2)(Cc2ccccc2)C1=O.O=C(O)C(F)(F)F.O=C(O)C(F)(F)F`, the MIC in the data set with Escherichia coli was greater than 256 µg/mL; in the data set with Staphylococcus aureus it was greater than 256 µg/mL; in the data set on Bacillus subtilis, 256 µg/mL; in the data set with Pseudomonas aeruginosa, greater than 256 µg/mL. The EC50 at 1 h in data set [1] was greater than 311 µg/mL.

`N=C(N)NCCCN1C(=O)N(CCCNC(=N)N)C(Cc2cc(Br)cc(Br)c2)(Cc2cc(Br)cc(Br)c2)C1=O.O=C(O)C(F)(F)F.O=C(O)C(F)(F)F`: the MIC worked out at 16 µg/mL with Escherichia coli, 2 µg/mL with Staphylococcus aureus, 4 µg/mL with Bacillus subtilis and 32 µg/mL in the data set with Pseudomonas aeruginosa. In addition, the selectivity ratio was determined as 122 in data set [2], 30 in data set [4] and 243 in data set [3]. Besides, the EC50 at 1 h in data set [1] stood at 486 µg/mL.

In the case of `NCCCCN1C(=O)N(CCCCN)C(Cc2ccc(C(F)(F)F)cc2)(Cc2ccc(C(F)(F)F)cc2)C1=O.O=C(O)C(F)(F)F.O=C(O)C(F)(F)F`, the MIC is greater than 128 µg/mL in the data set on Escherichia coli, 64 µg/mL with Staphylococcus aureus, 16 µg/mL in the data set with Bacillus subtilis and greater than 128 µg/mL in the data set on Pseudomonas aeruginosa. The EC50 at 1 h in data set [1] is greater than 393 µg/mL.

With `NCCCCN1C(=O)N(CCCCN)C(Cc2cc(C(F)(F)F)cc(C(F)(F)F)c2)(Cc2cc(C(F)(F)F)cc(C(F)(F)F)c2)C1=O.O=C(O)C(F)(F)F.O=C(O)C(F)(F)F`, the MIC with Escherichia coli was found to be 64 µg/mL; in the data set with Staphylococcus aureus, 16 µg/mL; with Bacillus subtilis, 4 µg/mL; with Pseudomonas aeruginosa, 64 µg/mL. In addition, the EC50 at 1 h in data set [1] was greater than 461 µg/mL.

Regarding `N=C(N)NCCCN1C(=O)N(CCCNC(=N)N)C(Cc2cc(C(F)(F)F)cc(C(F)(F)F)c2)(Cc2cc(C(F)(F)F)cc(C(F)(F)F)c2)C1=O`, the MIC in the data set on Escherichia coli is 32 µg/mL (≈ 42.6 µM); in the data set on Staphylococcus aureus, 4 µg/mL (≈ 5.33 µM); with Bacillus subtilis, 2 µg/mL (≈ 2.66 µM); with Pseudomonas aeruginosa, 32 µg/mL (≈ 42.6 µM). Moreover, the selectivity ratio in data set [2] was greater than 245; in data set [3] it was greater than 122. The EC50 at 1 h in data set [1] is greater than 489 µg/mL.

In the case of `N=C(N)NCCCCN1C(=O)N(CCCCNC(=N)N)C(Cc2ccc(C(F)(F)F)cc2)(Cc2ccc(C(F)(F)F)cc2)C1=O.O=C(O)C(F)(F)F.O=C(O)C(F)(F)F`, the MIC with Escherichia coli is 64 µg/mL; in the data set on Staphylococcus aureus it was 4 µg/mL; in the data set on Bacillus subtilis, 4 µg/mL; in the data set with Pseudomonas aeruginosa it was greater than 128 µg/mL. Further, the EC50 at 1 h in data set [1] is greater than 503 µg/mL.

With `N=C(N)NCCCN1C(=O)N(CCCNC(=N)N)C(Cc2ccccc2)(Cc2ccccc2)C1=O.O=C(O)C(F)(F)F.O=C(O)C(F)(F)F`, the MIC with Escherichia coli was greater than 256 µg/mL; in the data set on Staphylococcus aureus, 64 µg/mL; in the data set with Bacillus subtilis, 128 µg/mL; in the data set on Pseudomonas aeruginosa, greater than 256 µg/mL. Besides, the EC50 at 1 h in data set [1] was greater than 353 µg/mL.

In the case of `NCCCN1C(=O)N(CCCN)C(Cc2ccc(C(F)(F)F)cc2)(Cc2ccc(C(F)(F)F)cc2)C1=O.O=C(O)C(F)(F)F.O=C(O)C(F)(F)F`, the MIC was 256 µg/mL with Escherichia coli, 64 µg/mL in the data set on Staphylococcus aureus, 16 µg/mL in the data set on Bacillus subtilis and greater than 256 µg/mL in the data set on Pseudomonas aeruginosa. Also, the EC50 at 1 h in data set [1] is greater than 379 µg/mL.
